Active and inactive are the calls of the source.

Series [1] deals with T1, Endothelin-1 receptor (Rattus norvegicus) (UniProt P26684).
T1 sequence (whole entry): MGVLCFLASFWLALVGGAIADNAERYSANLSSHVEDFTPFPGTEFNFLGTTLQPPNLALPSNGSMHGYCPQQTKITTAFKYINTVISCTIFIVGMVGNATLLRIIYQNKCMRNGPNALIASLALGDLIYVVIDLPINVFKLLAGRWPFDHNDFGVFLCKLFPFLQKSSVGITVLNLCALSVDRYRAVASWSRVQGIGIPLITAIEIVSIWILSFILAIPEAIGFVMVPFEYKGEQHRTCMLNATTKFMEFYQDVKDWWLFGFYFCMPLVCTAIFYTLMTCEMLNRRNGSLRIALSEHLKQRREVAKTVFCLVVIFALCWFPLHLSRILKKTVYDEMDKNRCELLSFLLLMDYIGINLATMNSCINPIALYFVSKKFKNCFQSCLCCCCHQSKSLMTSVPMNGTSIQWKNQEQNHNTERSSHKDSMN
Briefly: Antagonist activity to ETA receptor in endothelin-1 stimulated Sprague-Dawley rat aorta assessed as induction of vessel ring contraction upto 10 uM preincubated for 15 mins. The series is classed as functional, tissue-based.

For series [2], the target named is Mu-type opioid receptor (Homo sapiens) (UniProt P35372). Briefly: Displacement of [3H]DAMGO from human recombinant mu-Opioid receptor at 10 uM incubated for 120 mins by radiometric based scintillation counter assay relative to control. For orientation: In a radioligand displacement assay an active substance lowers the binding of a labelled ligand.
Sequence of Mu-type opioid receptor (Homo sapiens) (P35372 whole entry): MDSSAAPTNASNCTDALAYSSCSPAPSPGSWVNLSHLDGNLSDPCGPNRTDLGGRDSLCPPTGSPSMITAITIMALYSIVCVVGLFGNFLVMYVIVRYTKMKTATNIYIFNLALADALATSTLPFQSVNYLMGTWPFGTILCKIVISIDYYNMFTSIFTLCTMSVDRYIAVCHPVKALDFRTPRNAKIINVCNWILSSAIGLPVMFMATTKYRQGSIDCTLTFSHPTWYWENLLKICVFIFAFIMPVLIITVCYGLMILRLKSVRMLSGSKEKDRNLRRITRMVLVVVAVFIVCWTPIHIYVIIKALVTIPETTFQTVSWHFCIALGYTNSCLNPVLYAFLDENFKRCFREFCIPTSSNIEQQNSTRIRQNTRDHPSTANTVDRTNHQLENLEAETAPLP
Series [3] concerns the target T1, Endothelin-1 receptor (Rattus norvegicus). Briefly: In vivo antagonist activity to ETA receptor in endothelin-1 induced Sprague-Dawley rat assessed as inhibition of transient depressor response at 100 mg/kg, po administered for 4 hrs. It counts as functional, organism-based.
A further series is filed under the species Homo sapiens. Briefly: Inhibition of Thromboxane A2 receptor/prostaglandin H2 receptor (unknown origin) at 10 uM by radioligand binding assay relative to control.
In series [4] the target is Histamine H2 receptor (Homo sapiens) (UniProt P25021). Briefly: Displacement of [125I]APT from human recombinant histamine H2 receptor at 10 uM incubated for 120 mins by radiometric based scintillation counter assay relative to control.
Sequence of Histamine H2 receptor (Homo sapiens) (P25021 whole entry): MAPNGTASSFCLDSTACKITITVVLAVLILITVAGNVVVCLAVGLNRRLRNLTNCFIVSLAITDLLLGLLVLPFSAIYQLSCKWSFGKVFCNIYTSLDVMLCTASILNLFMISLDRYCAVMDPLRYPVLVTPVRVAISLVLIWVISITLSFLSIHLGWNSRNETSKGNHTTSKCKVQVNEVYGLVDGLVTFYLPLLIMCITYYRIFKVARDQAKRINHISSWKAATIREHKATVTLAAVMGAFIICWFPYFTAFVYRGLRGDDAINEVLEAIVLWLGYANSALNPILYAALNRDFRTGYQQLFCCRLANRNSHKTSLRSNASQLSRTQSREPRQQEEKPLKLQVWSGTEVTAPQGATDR
Series [5] addresses Neuropeptide Y receptor type 2 (Homo sapiens) (UniProt P49146). Briefly: Displacement of [125I]peptide YY from human recombinant Y2 receptor at 10 uM incubated for 60 mins by radiometric based scintillation counter assay relative to control.
For series [6], the target named is Type-2 angiotensin II receptor (Homo sapiens) (UniProt P50052). Briefly: Displacement of [125I]CGP 42112A from human recombinant angiotensin AT2 receptor at 10 uM incubated for 240 mins by radiometric based scintillation counter assay relative to control.
Sequence of Type-2 angiotensin II receptor (Homo sapiens) (P50052 whole entry): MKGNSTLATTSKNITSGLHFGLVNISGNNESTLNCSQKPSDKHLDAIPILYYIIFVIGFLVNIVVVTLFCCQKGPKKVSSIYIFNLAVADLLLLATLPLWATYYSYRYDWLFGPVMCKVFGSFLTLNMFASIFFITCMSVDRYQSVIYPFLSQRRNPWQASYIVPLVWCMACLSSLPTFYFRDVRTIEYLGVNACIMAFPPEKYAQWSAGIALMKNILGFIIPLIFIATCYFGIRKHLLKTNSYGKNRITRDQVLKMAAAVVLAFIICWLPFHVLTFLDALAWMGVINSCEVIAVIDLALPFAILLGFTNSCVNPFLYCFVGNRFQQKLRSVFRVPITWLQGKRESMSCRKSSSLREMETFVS
The target in series [7] is Sodium-dependent dopamine transporter (Homo sapiens) (UniProt Q01959). Briefly: Displacement of [3H]BTCP from human recombinant dopamine receptor at 10 uM incubated for 120 mins by radiometric based scintillation counter assay relative to control.
Sequence of Sodium-dependent dopamine transporter (Homo sapiens) (Q01959 whole entry): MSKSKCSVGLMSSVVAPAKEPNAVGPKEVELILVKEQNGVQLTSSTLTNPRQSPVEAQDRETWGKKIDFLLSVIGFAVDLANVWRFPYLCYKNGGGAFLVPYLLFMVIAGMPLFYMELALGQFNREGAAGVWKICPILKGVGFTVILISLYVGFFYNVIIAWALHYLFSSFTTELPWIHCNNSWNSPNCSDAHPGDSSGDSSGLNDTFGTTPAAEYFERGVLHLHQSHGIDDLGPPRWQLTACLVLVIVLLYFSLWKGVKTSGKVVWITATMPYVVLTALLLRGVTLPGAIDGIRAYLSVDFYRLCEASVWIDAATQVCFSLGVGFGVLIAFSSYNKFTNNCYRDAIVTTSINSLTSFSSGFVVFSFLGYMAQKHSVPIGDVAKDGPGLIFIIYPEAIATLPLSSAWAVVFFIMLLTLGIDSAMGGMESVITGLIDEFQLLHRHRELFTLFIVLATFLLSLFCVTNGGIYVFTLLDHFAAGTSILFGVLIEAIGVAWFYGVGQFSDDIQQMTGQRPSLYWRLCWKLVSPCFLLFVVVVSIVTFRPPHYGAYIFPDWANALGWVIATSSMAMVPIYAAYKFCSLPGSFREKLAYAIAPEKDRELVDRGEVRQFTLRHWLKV
The target of another series is T2, Endothelin-1 receptor (Rattus norvegicus, UniProt P26684).
T2 sequence (P26684 whole entry): T1 sequence (whole entry)
Briefly: Antagonist activity to ETA receptor in Sprague-Dawley rat aorta assessed as induction of vessel ring contraction preincubated for 15 mins. To be noted: read-out: pA2 (converted). The series is classed as functional, tissue-based.

Series [8] deals with Tumor necrosis factor receptor superfamily member 1A (Homo sapiens) (UniProt P19438). Briefly: Displacement of [125I]TNF-alpha from human tumor necrosis factor-alpha at 10 uM incubated for 120 mins by radiometric based scintillation counter assay relative to control.
Series [9] concerns the target Beta-2 adrenergic receptor (Homo sapiens) (UniProt P07550). Briefly: Displacement of [3H](-)CGP 12177 from human recombinant beta2-adrenoceptor at 10 uM incubated for 120 mins by radiometric based scintillation counter assay relative to control.
For series [10], the target named is T1, Endothelin-1 receptor (Rattus norvegicus). Briefly: In vivo antagonist activity to ETA receptor in endothelin-1 induced Sprague-Dawley rat assessed as reduction of vasopressor response at 30 mg/kg, po administered for 4 to 8 hrs. It counts as functional, organism-based. To be noted: time 4-8 hrs.
The target in series [11] is 5-hydroxytryptamine receptor 2A (Homo sapiens) (UniProt P28223). Briefly: Displacement of [3H]ketanserin from human recombinant 5-Hydroxytryptamine 2A at 10 uM incubated for 60 mins by radiometric based scintillation counter assay relative to control.
Sequence of 5-hydroxytryptamine receptor 2A (Homo sapiens) (P28223 whole entry): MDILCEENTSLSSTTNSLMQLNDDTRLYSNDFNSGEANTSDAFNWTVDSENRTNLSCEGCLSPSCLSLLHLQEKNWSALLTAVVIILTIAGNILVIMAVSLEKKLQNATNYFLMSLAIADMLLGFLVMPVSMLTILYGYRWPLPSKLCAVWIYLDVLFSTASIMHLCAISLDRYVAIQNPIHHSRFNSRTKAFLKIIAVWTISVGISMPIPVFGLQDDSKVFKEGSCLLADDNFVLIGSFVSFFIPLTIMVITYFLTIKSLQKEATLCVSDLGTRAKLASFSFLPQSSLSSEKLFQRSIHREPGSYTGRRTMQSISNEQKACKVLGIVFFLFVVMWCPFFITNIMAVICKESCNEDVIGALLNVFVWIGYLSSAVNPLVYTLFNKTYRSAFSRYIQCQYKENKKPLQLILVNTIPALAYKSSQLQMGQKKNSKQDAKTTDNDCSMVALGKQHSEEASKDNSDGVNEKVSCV
Series [12] has as its target T3, Endothelin-1 receptor (Homo sapiens) (UniProt P25101).
T3 sequence (whole entry): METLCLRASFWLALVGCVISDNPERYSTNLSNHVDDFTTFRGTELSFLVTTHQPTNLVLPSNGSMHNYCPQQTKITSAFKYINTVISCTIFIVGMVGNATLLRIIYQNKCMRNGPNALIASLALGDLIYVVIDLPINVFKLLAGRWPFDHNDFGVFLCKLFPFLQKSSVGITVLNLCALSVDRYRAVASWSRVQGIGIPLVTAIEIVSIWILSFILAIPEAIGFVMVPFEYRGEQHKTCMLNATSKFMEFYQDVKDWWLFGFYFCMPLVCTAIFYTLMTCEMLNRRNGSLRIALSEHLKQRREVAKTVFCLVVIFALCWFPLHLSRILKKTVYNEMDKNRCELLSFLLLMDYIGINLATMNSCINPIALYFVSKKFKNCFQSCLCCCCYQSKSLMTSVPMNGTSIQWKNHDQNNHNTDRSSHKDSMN
Briefly: Antagonist activity at ETA receptor in human Pericardial smooth muscle cell assessed as inhibition of […] in presence of myo-[3H] inositol by anion exchange chromatography. The series is classed as functional, cell-based.

In series [13] the target is Prostacyclin receptor (Homo sapiens) (UniProt P43119). Briefly: Displacement of [3H]iloprost from human recombinant Prostaglandin I2 receptor at 10 uM incubated for 60 mins by radiometric based scintillation counter assay relative to control.
Series [14] addresses Melatonin receptor type 1A (Homo sapiens) (UniProt P48039). Briefly: Displacement of [125I]2-iodomelatonin from human recombinant melatonin ML1 receptor at 10 uM incubated for 240 mins by radiometric based scintillation counter assay relative to control.
The target in series [15] is Gastrin/cholecystokinin type B receptor (Homo sapiens) (UniProt P32239). Briefly: Displacement of [125I]CCK-8s from human recombinant cholecystokinin B receptor at 10 uM incubated for 60 mins by radiometric based scintillation counter assay relative to control.
Sequence of Gastrin/cholecystokinin type B receptor (Homo sapiens) (P32239 whole entry): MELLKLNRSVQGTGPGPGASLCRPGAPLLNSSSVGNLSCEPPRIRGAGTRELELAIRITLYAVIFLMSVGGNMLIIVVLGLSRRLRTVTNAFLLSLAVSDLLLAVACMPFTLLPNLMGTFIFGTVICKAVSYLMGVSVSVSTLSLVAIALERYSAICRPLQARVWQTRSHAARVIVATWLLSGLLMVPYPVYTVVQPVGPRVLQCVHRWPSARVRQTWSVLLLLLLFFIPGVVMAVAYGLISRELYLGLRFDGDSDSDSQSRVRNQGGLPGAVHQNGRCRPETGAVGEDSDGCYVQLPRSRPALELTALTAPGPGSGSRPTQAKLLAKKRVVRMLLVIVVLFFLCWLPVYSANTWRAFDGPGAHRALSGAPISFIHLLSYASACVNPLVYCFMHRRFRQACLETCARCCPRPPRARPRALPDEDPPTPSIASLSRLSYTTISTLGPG
Series [16] concerns the target Cannabinoid receptor 1 (Homo sapiens) (UniProt P21554). Briefly: Displacement of [3H]CP 55940 from human recombinant cannabinoid CB1 receptor at 10 uM incubated for 30 mins by radiometric based scintillation counter assay relative to control.
Series [17] in a line: Half life in cynomolgus monkey at 5 mg/kg, po administered for 12 hrs by HPLC analysis. The series is classed as ADME, organism-based, Macaca fascicularis. The note with it: in vivo.
The nature of series [18]: Cmax in Beagle dog at 5 mg/kg, po administered for 12 hrs by HPLC analysis. It counts as ADME, organism-based, Canis lupus familiaris. To be noted: in vivo.
In series [19] the target is Neurotensin receptor type 1 (Homo sapiens) (UniProt P30989). Briefly: Displacement of [125I]Tyr3-neurotensin from human recombinant Neurotensin receptor at 10 uM incubated for 60 mins by radiometric based scintillation counter assay relative to control.
In series [20] the target is Histamine H1 receptor (Homo sapiens) (UniProt P35367). Briefly: Displacement of [3H]pyrilamine from human recombinant central-type histamine H1 receptor at 10 uM incubated for 60 mins by radiometric based scintillation counter assay relative to control.
Sequence of Histamine H1 receptor (Homo sapiens) (P35367 whole entry): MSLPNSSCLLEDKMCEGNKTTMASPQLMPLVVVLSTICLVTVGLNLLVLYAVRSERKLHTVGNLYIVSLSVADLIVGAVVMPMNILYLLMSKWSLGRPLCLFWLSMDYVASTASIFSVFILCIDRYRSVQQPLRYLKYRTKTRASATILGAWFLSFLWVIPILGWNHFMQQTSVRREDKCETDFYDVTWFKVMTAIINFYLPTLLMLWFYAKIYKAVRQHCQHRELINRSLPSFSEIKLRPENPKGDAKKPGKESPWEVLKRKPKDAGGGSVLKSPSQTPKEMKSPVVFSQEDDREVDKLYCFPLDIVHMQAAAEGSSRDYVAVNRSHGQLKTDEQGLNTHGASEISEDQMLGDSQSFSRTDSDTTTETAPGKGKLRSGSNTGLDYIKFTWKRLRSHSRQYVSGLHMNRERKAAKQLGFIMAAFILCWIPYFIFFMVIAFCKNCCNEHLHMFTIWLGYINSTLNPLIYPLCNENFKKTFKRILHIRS
Series [21] addresses 5-hydroxytryptamine receptor 7 (Homo sapiens) (UniProt P34969). Briefly: Displacement of [3H]LSD from human recombinant 5-Hydroxytryptamine 7 at 10 uM incubated for 120 mins by radiometric based scintillation counter assay relative to control.

Sequence of Beta-2 adrenergic receptor (Homo sapiens) (P07550 whole entry, looked up): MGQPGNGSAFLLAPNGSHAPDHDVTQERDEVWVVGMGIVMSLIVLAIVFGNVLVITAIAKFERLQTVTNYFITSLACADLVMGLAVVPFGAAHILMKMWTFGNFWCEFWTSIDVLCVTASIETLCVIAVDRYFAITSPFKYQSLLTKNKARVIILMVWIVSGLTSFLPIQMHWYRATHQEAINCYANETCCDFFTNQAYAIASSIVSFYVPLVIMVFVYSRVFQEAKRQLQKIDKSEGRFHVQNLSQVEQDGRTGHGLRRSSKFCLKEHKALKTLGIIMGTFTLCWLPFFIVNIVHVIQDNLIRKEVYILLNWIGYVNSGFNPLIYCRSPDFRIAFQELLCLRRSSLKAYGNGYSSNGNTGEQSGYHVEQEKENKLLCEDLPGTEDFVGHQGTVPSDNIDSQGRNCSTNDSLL
Sequence of 5-hydroxytryptamine receptor 7 (Homo sapiens) (P34969 whole entry): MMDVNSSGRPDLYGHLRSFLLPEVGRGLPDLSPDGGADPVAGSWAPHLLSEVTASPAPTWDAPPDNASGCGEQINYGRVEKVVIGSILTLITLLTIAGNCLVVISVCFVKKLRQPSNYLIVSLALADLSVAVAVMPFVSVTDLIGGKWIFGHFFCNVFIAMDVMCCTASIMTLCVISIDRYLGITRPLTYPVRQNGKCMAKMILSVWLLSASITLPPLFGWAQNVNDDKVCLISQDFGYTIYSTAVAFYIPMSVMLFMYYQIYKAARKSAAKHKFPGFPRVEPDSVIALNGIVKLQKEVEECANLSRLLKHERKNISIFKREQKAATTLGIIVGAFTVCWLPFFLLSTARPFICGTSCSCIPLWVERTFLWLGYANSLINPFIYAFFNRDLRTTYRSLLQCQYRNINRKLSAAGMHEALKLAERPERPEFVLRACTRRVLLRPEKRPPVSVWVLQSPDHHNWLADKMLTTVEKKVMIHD
Sequence of Neuropeptide Y receptor type 2 (Homo sapiens) (P49146 whole entry): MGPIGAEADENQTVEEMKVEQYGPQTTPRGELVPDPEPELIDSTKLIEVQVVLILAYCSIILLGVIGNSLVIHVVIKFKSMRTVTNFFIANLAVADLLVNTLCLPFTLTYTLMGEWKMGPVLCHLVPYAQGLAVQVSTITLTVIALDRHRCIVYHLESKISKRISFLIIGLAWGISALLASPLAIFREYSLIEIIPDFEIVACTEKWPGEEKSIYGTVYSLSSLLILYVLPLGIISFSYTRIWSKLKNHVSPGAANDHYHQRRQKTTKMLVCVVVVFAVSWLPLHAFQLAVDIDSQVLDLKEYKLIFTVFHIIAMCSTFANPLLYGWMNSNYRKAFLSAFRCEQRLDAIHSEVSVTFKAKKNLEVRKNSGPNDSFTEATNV
Sequence of Melatonin receptor type 1A (Homo sapiens) (P48039 whole entry): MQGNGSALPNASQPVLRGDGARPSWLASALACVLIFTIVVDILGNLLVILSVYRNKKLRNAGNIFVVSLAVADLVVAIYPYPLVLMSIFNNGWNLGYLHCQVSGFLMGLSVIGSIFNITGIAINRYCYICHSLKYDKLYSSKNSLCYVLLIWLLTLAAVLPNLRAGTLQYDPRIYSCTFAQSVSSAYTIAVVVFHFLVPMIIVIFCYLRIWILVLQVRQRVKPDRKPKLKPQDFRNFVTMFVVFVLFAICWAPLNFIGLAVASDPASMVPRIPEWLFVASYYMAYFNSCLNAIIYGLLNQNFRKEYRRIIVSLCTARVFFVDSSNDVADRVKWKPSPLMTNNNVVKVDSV

A word on the inhibition: it is the relative decrease from the control value, in per cent. Broadly, the half-life is the time needed for the level to fall by half in the phase considered. The Cmax is the peak of the concentration-time curve. For the molecule `CCCCN(CCCC)C(=O)CN1[C@H](c2cc(OC)c3c(c2)OCO3)C[C@@H](C(=O)O)[C@@H]1CC(C)(C)CCC`, the result in series [1] and in [12] was inactive. Also, the inhibition in series [2] was 17%; in the series listed under Homo sapiens it was 16%; in [4], below 10%; in [5], below 10%; in [6], below 10%; in [7], below 10%. The inhibition in series [8] is below 10%; in series [9] it was below 10%; in series [11] it was below 10%; in [13] it was 15%; in series [14], 12%; in series [15], below 10%. In addition, the inhibition in series [16], in series [19], in series [20] and in series [21] was below 10% throughout. For the same molecule, the result in [3] and in [10] was Active. Further, the Kb on Endothelin-1 receptor is 5.13 nM. The half-life in [17] is 1 h. Also, the maximum concentration (Cmax) in [18] is 1970 ng/mL.
